Assay results: patent publication US9856254B2, “Alkoxy substituted imidazoquinolines” (3M INNOVATIVE PROPERTIES COMPANY, priority 2003, dated 2018)

Row | Compound | melting point
1 | CCOCc1nc2c(N)nc3cc(OC4CCN(C(=O)OC(C)(C)C)CC4)ccc3c2n1CC1COC(C)(C)O1 (stereo not shown) [Example 374, tert-Butyl 4-{[4-amino-1-[(2,2-dimethyl-1,3-dioxolan-4-yl)methyl]-2-(ethoxymethyl)-1H-imidazo[4,5-c]quinolin-7-yl]oxy}piperidine-1-carboxylate] | 158 to 159 °C
2 | CCCn1c(CCOC)nc2c(N)nc3cc(OC4CCN(C(=O)OC(C)(C)C)CC4)ccc3c21 [Example 387, tert-Butyl 4-{[4-amino-2-(2-methoxyethyl)-1-propyl-1H-imidazo[4,5-c]quinolin-7-yl]oxy}piperidine-1-carboxylate] | 173 to 175 °C
3 | CCCn1c(CCOC)nc2c(N)nc3cc(OC4CCN(C(=O)NC(C)C)CC4)ccc3c21 [Example 388, 4-{[4-Amino-2-(2-methoxyethyl)-1-propyl-1H-imidazo[4,5-c]quinolin-7-yl]oxy}-N-isopropylpiperidine-1-carboxamide] | 176 to 179 °C
4 | CCCn1c(CCOC)nc2c(N)nc3cc(OC4CCN(C(=O)C(C)C)CC4)ccc3c21 [Example 389, 7-[(1-Isobutyrylpiperidin-4-yl)oxy]-2-(2-methoxyethyl)-1-propyl-1H-imidazo[4,5-c]quinolin-4-amine] | 165 to 166 °C
5 | CCCn1c(CCOC)nc2c(N)nc3cc(OC4CCN(S(C)(=O)=O)CC4)ccc3c21 [Example 390, 2-(2-Methoxyethyl)-7-{[1-(methylsulfonyl)piperidin-4-yl]oxy}-1-propyl-1H-imidazo[4,5-c]quinolin-4-amine] | 224 to 225.5 °C
6 | CCCn1c(CCOC)nc2c(N)nc3cc(OC4CCN(C(N)=O)CC4)ccc3c21 [Example 391, 4-{[4-Amino-2-(2-methoxyethyl)-1-propyl-1H-imidazo[4,5-c]quinolin-7-yl]oxy}piperidine-1-carboxamide] | 207 to 208.5 °C
7 | CCCn1c(CCOC)nc2c(N)nc3cc(OCCCS(C)(=O)=O)ccc3c21 [Example 392, 2-(2-Methoxyethyl)-7-[3-(methylsulfonyl)propoxy]-1-propyl-1H-imidazo[4,5-c]quinolin-4-amine] | 170 to 171 °C
8 | CCCn1c(CCOC)nc2c(N)nc3cc(OCCCNC(=O)OC(C)(C)C)ccc3c21 [Example 393, tert-Butyl 3-{[4-amino-2-(2-methoxyethyl)-1-propyl-1H-imidazo[4,5-c]quinolin-7-yl]oxy}propylcarbamate] | 133.5 to 135 °C
9 | CCCn1c(CCOC)nc2c(N)nc3cc(OCCCN)ccc3c21 [Example 394, 7-(3-Aminopropoxy)-2-(2-methoxyethyl)-1-propyl-1H-imidazo[4,5-c]quinolin-4-amine] | 165 to 166.5 °C
10 | CCCn1c(CCO)nc2c(N)nc3cc(OCCCNC(=O)C(C)C)ccc3c21 [Example 395, N-(3-{[4-Amino-2-(2-hydroxyethyl)-1-propyl-1H-imidazo[4,5-c]quinolin-7-yl]oxy}propyl)-2-methylpropanamide] | 190.5 to 192 °C
11 | CCCn1c(CCO)nc2c(N)nc3cc(OCCCNC(=O)c4cccnc4)ccc3c21 [Example 396, N-(3-{[4-Amino-2-(2-hydroxyethyl)-1-propyl-1H-imidazo[4,5-c]quinolin-7-yl]oxy}propyl)nicotinamide] | 183.5 to 184.5 °C
12 | CCOCc1nc2c(N)nc3cc(OCCCN4CCCC4=O)ccc3c2n1CCCCNC(=O)OC(C)(C)C [Example 397, tert-Butyl 4-{4-amino-2-(ethoxymethyl)-7-[3-(2-oxopyrrolidin-1-yl)propoxy]-1H-imidazo[4,5-c]quinolin-1-yl}butylcarbamate] | 134.5 to 136 °C
13 | CCOCc1nc2c(N)nc3cc(OCCCN4CCCC4=O)ccc3c2n1CCCCNC(=O)NC(C)C [Example 399, N-(4-{4-Amino-2-(ethoxymethyl)-7-[3-(2-oxopyrrolidin-1-yl)propoxy]-1H-imidazo[4,5-c]quinolin-1-yl}butyl)-N′-isopropylurea] | 98 to 101 °C
